The text below walks through data of patent US8637676B2, “Dual-acting benzoimidazole antihypertensive agents” (Theravance, Inc., priority 2007, dated 2014).

Assay [1] concerns the target T1, human AT1 receptor (Homo sapiens, UniProt P30556).
T1 construct: expressed in transfected cells; membranes
T1 sequence (P30556 1-359): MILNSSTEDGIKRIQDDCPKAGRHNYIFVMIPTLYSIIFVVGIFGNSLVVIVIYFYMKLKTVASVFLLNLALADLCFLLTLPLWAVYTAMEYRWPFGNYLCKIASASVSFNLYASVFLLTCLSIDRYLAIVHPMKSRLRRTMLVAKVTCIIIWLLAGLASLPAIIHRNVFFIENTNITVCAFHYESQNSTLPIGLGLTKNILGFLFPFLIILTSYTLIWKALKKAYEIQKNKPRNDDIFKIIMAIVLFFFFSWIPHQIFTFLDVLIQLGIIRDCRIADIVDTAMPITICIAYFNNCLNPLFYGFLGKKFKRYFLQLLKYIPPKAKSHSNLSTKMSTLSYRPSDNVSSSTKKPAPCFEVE
Nature of the assay: AT1 radioligand binding assay (Assay 1). Particulars: displacement of [Eu]AngII, membranes of CHO-K1 cells expressing human AT1 receptor; read-out: pKi at the AT1 receptor (converted). On the procedure: These in vitro assays were used to assess the ability of test compounds to bind to the AT1 and the AT2 receptors.
Membrane Preparation From Cells Expressing Human AT1 or AT2 Receptors
Chinese hamster ovary (CHO-K^1) derived cell lines stably expressing the cloned human AT1 or AT2 receptors, respectively, were grown in HAM's-F12 medium supplemented with 10% fetal bovine serum, 10 μg/ml penicillin/streptomycin, and 500 μg/ml geneticin in a 5% CO2 humidified incubator at 37° C. AT2 receptor expressing cells were grown in the additional presence of 100 nM PD123,319 (AT2 antagonist). When cultures reached 80-95% confluence, the cells were washed thoroughly in PBS and lifted with 5 mM EDTA. Cells were pelleted by centrifugation and snap frozen in MeOH-dry ice and stored at −80° C. until further use.
For membrane preparation, cell pellets were resuspended in lysis buffer (25 mM Tris/HCl pH 7.5 at 4° C., 1 mM EDTA, and one tablet of Complete Protease Inhibitor Cocktail Tablets with 2 mM EDTA per 50 mL buffer (Roche cat.#1697498, Roche Molecular Biochemicals, Indianapolis, Ind.)) and homogenized using a tight-fitting Dounce glass homogenizer (10 strokes) on ice. The homogenate was centrifuged at 1000×g, the supernatant was collected and centrifuged at 20,000×g. […] Protein concentration of the membrane suspension was determined by the method described in Bradford (1976) Anal Biochem. 72:248-54. […]

The target of assay [2] is T2, NEP enzyme (Homo sapiens, UniProt P08473).
T2 construct: purchased R&D Systems, Minneapolis, Minn; 1182-ZN
T2 sequence (P08473 52-750 limits assumed): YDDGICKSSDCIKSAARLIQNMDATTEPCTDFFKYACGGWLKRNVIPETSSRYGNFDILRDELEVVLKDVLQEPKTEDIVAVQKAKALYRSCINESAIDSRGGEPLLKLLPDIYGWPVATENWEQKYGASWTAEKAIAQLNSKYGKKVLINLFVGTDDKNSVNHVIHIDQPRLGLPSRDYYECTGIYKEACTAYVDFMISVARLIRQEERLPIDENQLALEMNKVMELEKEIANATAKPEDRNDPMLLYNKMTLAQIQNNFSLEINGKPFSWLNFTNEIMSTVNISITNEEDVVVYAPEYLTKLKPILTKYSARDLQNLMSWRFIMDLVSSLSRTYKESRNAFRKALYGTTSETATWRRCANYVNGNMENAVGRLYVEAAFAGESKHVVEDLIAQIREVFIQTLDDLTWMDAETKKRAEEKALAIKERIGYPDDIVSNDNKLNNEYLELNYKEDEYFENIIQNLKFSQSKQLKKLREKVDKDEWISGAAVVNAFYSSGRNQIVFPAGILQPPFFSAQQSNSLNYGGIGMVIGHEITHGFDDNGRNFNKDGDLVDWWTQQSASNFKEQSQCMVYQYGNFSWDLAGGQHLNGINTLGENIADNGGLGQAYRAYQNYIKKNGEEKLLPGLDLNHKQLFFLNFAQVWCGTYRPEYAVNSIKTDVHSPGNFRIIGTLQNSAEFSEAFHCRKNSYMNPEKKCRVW
Kind of assay: In vitro NEP enzyme inhibition assay (Assay 2). In kind it is biochemical. The conditions noted are these: fluorogenic peptide substrate; species of NEP (human or rat) not given; read-out: pIC50 for the NEP enzyme (converted). How it is done:
The inhibitory activities of compounds at human and rat NEP and human ACE were determined using in vitro assays as described below.
Rat NEP was prepared from the kidneys of adult Sprague Dawley rats. Whole kidneys were washed in cold PBS and brought up in ice-cold lysis buffer (1% Triton X-114, 150 mM NaCl, 50 mM Tris pH 7.5; Bordier (1981) J. Biol. Chem. 256:1604-1607) in a ratio of 5 mL of buffer for every gram of kidney. Samples were homogenized using a polytron hand held tissue grinder on ice. Homogenates were centrifuged at 1000×g in a swinging bucket rotor for 5 minutes at 3° C. The pellet was resuspended in 20 mL of ice cold lysis buffer and incubated on ice for 30 minutes. […] Protein concentrations were quantitated using a BCA detection system with BSA as a standard. […]
The assays were performed in 384-well white opaque plates at room temperature using the respective fluorogenic peptides at a concentration of 10 μM in assay buffer (50 mM Tris/HCl at 25° C., 100 mM NaCl, 0.01% Tween-20, 1 μM Zn, 0.025% BSA). […] The rat NEP enzyme preparation was used at a concentration that yielded quantitative proteolysis of 3 μM of Mca-RRL within 20 minutes at room temperature.
Assays were started by adding 25 μL of enzyme to 12.5 μL of test compound at 12 concentrations (10 μM to 20 pM). […] Plates were read on a fluorometer with excitation and emission wavelengths set to 320 nm and 405 nm, respectively. […]

In the case of `CCCc1nc2c(C)cc(C(=O)N[C@@H](CC(=O)NO)Cc3ccccc3)cc2n1Cc1ccc(-c2ccccc2C(=O)O)cc1` [Example 1, 4′-[6-((R)-1-Benzyl-2-hydroxycarbamoylethylcarbamoyl)-4-methyl-2-propylbenzoimidazol-1-ylmethyl]biphenyl-2-carboxylic Acid], the Ki in assay [1] was less than 100 nM. For the same compound, the IC50 in assay [2] is not above 100 nM.
